# Assay results published in patent US20240246913A1, “2-CARBOXYL-INDOLE INHIBITORS OF METALLO-BETA-LACTAMASES” (Oxford University Innovation Limited, priority 2021, published 2024).
# Key:
# Escherichia coli NDM-1 = experiment: Antibiotic susceptibility testing (MIC), EC NDM-1; assay type: cell-based; settings: agar or broth dilution (CLSI/EUCAST)
# Description: (§1) Antibiotic susceptibility testing was performed using the agar or broth dilution method, in line with the Clinical and Laboratory Standards Institute (CLSI) and European Committee on Antimicrobial Susceptibility Testing (EUCAST) requirements.
# [1] = tested on: Acinetobacter baumannii NDM-1; experiment: Antibiotic susceptibility testing (MIC), AB NDM-1; assay type: cell-based; settings: agar or broth dilution (CLSI/EUCAST)
# Description: as §1
# IMP-1 = IMP-1 (Serratia marcescens, UniProt P52699); experiment: MBL inhibition, FC-5 fluorescence assay, IMP-1; assay type: biochemical; settings: FC-5 cephalosporin substrate, fluorescence; ranges of obtained pIC50; read-out: pIC50 IMP-1 (converted)
# IMP-1, sequence (P52699 19-246, looked up, species assumed): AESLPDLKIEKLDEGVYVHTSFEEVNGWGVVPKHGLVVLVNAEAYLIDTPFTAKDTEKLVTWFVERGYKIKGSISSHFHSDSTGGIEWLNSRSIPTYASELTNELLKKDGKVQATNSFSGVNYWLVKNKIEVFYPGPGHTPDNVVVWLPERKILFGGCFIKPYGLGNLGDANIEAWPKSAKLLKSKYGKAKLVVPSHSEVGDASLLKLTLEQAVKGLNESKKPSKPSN
# Outline: (§2)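 Dose-response fits (log inhibitor vs normalized response, variable slope) used initial reaction rates, each concentration in 4 replicates within the plate. Rates came from fluorophore release at ex 380/em 460 nm as the MBL hydrolyzed FC-5.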
# [2] = Metabolic stability in human hepatocytes; assay type: in vitro ADME; settings: cryopreserved human hepatocytes, 1 μM compound, 37° C., up to 90 min, read-out: Metabolic stability in hepatocytes, in vitro t1/2, Human
# Description: (§3) Metabolic stability assays were performed in cryopreserved human and mouse hepatocytes. The hepatocytes were thawed and added to “Thawing media”, and centrifuged to pellet the hepatocytes. The cell pellet was taken up in Williams medium E (Invitrogen A1217601), the number of cells was calculated and adjusted to 1.0×10^6 cells/mi. The incubation was carried out on a heater-shaker at […], in a 24-well Picoplate (round bottom, PerkinElmer), using an incubation volume of […]. Thus, to obtain a final compound concentration of 1 μM, 0.7 μl of the 1 mM compound stock solution was pipetted to the wells of the plate. Reaction was initiated by adding 700 μl of cell suspension. Samples were incubated at 37° C. for […] and a zero sample was taken, i.e. 100 μl sample was removed to a 96-well plate and the reaction was quenched by adding 100 μl of 100% MeCN containing 50 nM Warfarin as an internal control. Consecutive samples were taken at time-points 5 min, 15 min, 30 min, 60 min, and 90 min. After finishing the experiment, samples were centrifuged at 3000 rpm for 15 min and before analysis by LC-MS/MS (Waters Corp, Milford, MA, USA).
# [3] = Plasma protein binding, equilibrium dialysis, human plasma; assay type: in vitro ADME; settings: pH 7.4, equilibrium dialysis (RED) 4 hours at 37° C., read-out: Plasma protein binding, fu, Human
# Outline: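 Compound at 10 μM in plasma dialysed against 67 mM phosphate buffer pH 7.4 for 4 h at 37° C. in RED device; unbound fraction from buffer and plasma levels by LC-MS/MS. Plasma stability checked in parallel over 4 h at 37° C. versus frozen control.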
# NDM-1 = NDM-1 (Klebsiella pneumoniae, UniProt C7C422); experiment: MBL inhibition, FC-5 fluorescence assay, NDM-1; assay type: biochemical; settings: FC-5 cephalosporin substrate, fluorescence; ranges of obtained pIC50; read-out: pIC50 NDM-1 (converted)
# NDM-1, sequence (C7C422 29-270, looked up, species assumed): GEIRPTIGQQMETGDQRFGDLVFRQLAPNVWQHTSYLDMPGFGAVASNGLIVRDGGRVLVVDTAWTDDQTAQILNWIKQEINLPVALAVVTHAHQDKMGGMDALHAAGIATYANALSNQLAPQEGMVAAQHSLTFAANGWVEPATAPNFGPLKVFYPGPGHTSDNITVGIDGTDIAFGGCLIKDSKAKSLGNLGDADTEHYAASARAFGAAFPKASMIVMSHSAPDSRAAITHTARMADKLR
# Outline: as §2
# VIM-2 = VIM-2 (Escherichia coli, UniProt Q5U7L7); experiment: MBL inhibition, FC-5 fluorescence assay, VIM-2; assay type: biochemical; settings: FC-5 cephalosporin substrate, ranges of obtained pIC50, read-out: pIC50 VIM-2 (converted)
# Outline: as §2
# [4] = Metabolic stability in mouse hepatocytes; assay type: in vitro ADME; settings: cryopreserved mouse hepatocytes, 1 μM compound, 37° C., up to 90 min, read-out: Metabolic stability in hepatocytes, in vitro t1/2, Mouse
# Description: as §3
# VIM-1 = VIM-1 (Pseudomonas aeruginosa, UniProt A0A0F7KYQ8); experiment: MBL inhibition, FC-5 fluorescence assay, VIM-1; assay type: biochemical; settings: FC-5 cephalosporin substrate, ranges of obtained pIC50, read-out: pIC50 VIM-1 (converted)
# Outline: as §2
# [5] = Plasma protein binding, equilibrium dialysis, mouse plasma; assay type: in vitro ADME; settings: pH 7.4, equilibrium dialysis (RED) 4 hours at 37° C., read-out: Plasma protein binding, fu, Mouse
# Description: The fraction of unbound compound (fu) in plasma from human or other animal species was determined by equilibrium dialysis at 37° C. for 4 hours using the Rapid Equilibrium Dialysis (RED) device (ThermoFisher Scientific). The test compound at a concentration of 10 μM was added to plasma and dialyzed against isotonic phosphate buffer (67 mM, pH 7.4) over 4 hours at 37° C. After dialysis, compound concentrations in buffer and plasma were quantified by LC-MS/MS. In parallel the stability of the compound in plasma was determined by incubating drug-spiked plasma (10 μM) at 37° C. for 4 hours, meanwhile the control plasma sample was kept in the freezer. The concentration of the compound in both samples was quantified by LC-MS/MS (Waters Corp, Milford, MA, USA).
# Escherichia coli NDM-7 = experiment: Antibiotic susceptibility testing (MIC), EC NDM-7; assay type: cell-based; settings: agar or broth dilution (CLSI/EUCAST)
# Description: as §1
Compound,MIC values EC NDM-1 (Escherichia coli NDM-1),MIC values AB NDM-1 [1],IC50 (IMP-1),half-life at 1 μM [2],"fraction unbound at 4 h, 10 μM [3]",IC50 (NDM-1),IC50 (VIM-2),half-life at 1 μM [4],IC50 (VIM-1),"fraction unbound at 4 h, 10 μM [5]",MIC values EC NDM-7 (Escherichia coli NDM-7)
"CC(c1noc(CCCN)n1)c1cccc2c(-c3ccc(CS(C)(=O)=O)c(F)c3)c(C(=O)O)[nH]c12 (stereo not drawn) [IC-62, 7-[1-[5-(3-Aminopropyl)-1,2,4-oxadiazol-3-yl]ethyl]-3-[3-fluoro-4-(methylsulfonylmethyl)phenyl]-1H-indole-2-carboxylic acid]",A (A = MIC values ≤ 1),A (A = MIC values ≤ 1),1 to 10 nM,> 6.67 h,0.05 to 0.25,< 0.1 nM,0.1 to 1 nM,2.5 to 6.67 h,0.1 to 1 nM,0.005 to 0.05,A (A = MIC values ≤ 1)
"C[C@@H](c1cccc2c(-c3ccc(CS(C)(=O)=O)c(F)c3)c(C(=O)O)[nH]c12)N1CC2(CN(C(=N)N)C2)OC1=O [IC-66, (S)-7-(1-(2-carbamimidoyl-6-oxo-5-oxa-2,7-diazaspiro[3.4]octan-7-yl)ethyl)-3-(3-fluoro-4-((methylsulfonyl)methyl)phenyl)-1H-indole-2-carboxylic acid]",A (A = MIC values ≤ 1),B (B MIC values 2 ÷ 8),> 10 nM,2.5 to 6.67 h,> 0.25,0.1 to 1 nM,0.1 to 1 nM,> 6.67 h,0.1 to 1 nM,0.005 to 0.05,A (A = MIC values ≤ 1)
"C[C@@H](c1cccc2c(-c3ccc(CS(C)(=O)=O)c(F)c3)c(C(=O)O)[nH]c12)n1cc(CN2CC(N)C2)oc1=O [IC-67, (S)-7-(1-(5-((3-aminoazetidin-1-yl)methyl)-2-oxooxazol-3(2H)-yl)ethyl)-3-(3-fluoro-4-((methylsulfonyl)methyl)phenyl)-1H-indole-2-carboxylic acid]",A (A = MIC values ≤ 1),B (B MIC values 2 ÷ 8),> 10 nM,> 6.67 h,0.05 to 0.25,< 0.1 nM,0.1 to 1 nM,> 6.67 h,1 to 10 nM,0.005 to 0.05,A (A = MIC values ≤ 1)
"C[C@@H](c1cccc2c(-c3ccc(CS(C)(=O)=O)c(F)c3)c(C(=O)O)[nH]c12)n1cc(CCC2(N)CC2)oc1=O [IC-69, (S)-7-(1-(5-(2-(1-Aminocyclopropyl)ethyl)-2-oxooxazol-3(2H)-yl)ethyl)-3-(3-fluoro-4-((methylsulfonyl)methyl)phenyl)-1H-indole-2-carboxylic acid]",A (A = MIC values ≤ 1),B (B MIC values 2 ÷ 8),> 10 nM,> 6.67 h,0.05 to 0.25,< 0.1 nM,0.1 to 1 nM,< 2.5 h,0.1 to 1 nM,0.005 to 0.05,A (A = MIC values ≤ 1)
"C[C@@H](c1cccc2c(-c3ccc(CS(C)(=O)=O)c(F)c3)c(C(=O)O)[nH]c12)n1cc(CCCN)oc1=O [IC-70, (S)-7-(1-(5-(3-aminopropyl)-2-oxooxazol-3(2H)-yl)ethyl)-3-(3-fluoro-4-((methylsulfonyl)methyl)phenyl)-1H-indole-2-carboxylic acid]",A (A = MIC values ≤ 1),A (A = MIC values ≤ 1),> 10 nM,> 6.67 h,0.05 to 0.25,< 0.1 nM,0.1 to 1 nM,2.5 to 6.67 h,0.1 to 1 nM,0.005 to 0.05,A (A = MIC values ≤ 1)
"C[C@@H](c1cccc2c(-c3ccc(CS(C)(=O)=O)c(F)c3)c(C(=O)O)[nH]c12)N1CC2(CCC(N)CC2)OC1=O (stereo partly drawn) [IC-71, (S)-7-(1-(8-amino-2-oxo-1-oxa-3-azaspiro[4.5]decan-3-yl)ethyl)-3-(3-fluoro-4-((methylsulfonyl)methyl)phenyl)-1H-indole-2-carboxylic acid]",B (B MIC values 2 ÷ 8),C (C = MIC values > 8),> 10 nM,> 6.67 h,> 0.25,1 to 10 nM,1 to 10 nM,2.5 to 6.67 h,> 10 nM,> 0.25,A (A = MIC values ≤ 1)
"CC(c1cccc2c(-c3ccc(CS(C)(=O)=O)c(F)c3)c(C(=O)O)[nH]c12)n1cc(CCC2(N)CC2)oc1=O (stereo not drawn) [IC-74, 7-(1-(5-(2-(1-aminocyclopropyl)ethyl)-2-oxooxazol-3(2H)-yl)ethyl)-3-(3-fluoro-4-((methylsulfonyl)methyl)phenyl)-1H-indole-2-carboxylic acid]",A (A = MIC values ≤ 1),B (B MIC values 2 ÷ 8),> 10 nM,> 6.67 h,0.05 to 0.25,< 0.1 nM,0.1 to 1 nM,< 2.5 h,0.1 to 1 nM,0.05 to 0.25,A (A = MIC values ≤ 1)
"CC(c1cccc2c(-c3ccc(CS(C)(=O)=O)c(F)c3)c(C(=O)O)[nH]c12)n1cc(CN)oc1=O (stereo not drawn) [IC-79, 7-(1-(5-(Aminomethyl)-2-oxooxazol-3(2H)-yl)ethyl)-3-(3-fluoro-4-((methylsulfonyl)methyl)phenyl)-1H-indole-2-carboxylic acid]",A (A = MIC values ≤ 1),A (A = MIC values ≤ 1),> 10 nM,> 6.67 h,> 0.25,0.1 to 1 nM,1 to 10 nM,< 2.5 h,1 to 10 nM,0.05 to 0.25,A (A = MIC values ≤ 1)
"CC(c1cccc2c(-c3ccc(CS(C)(=O)=O)c(F)c3)c(C(=O)O)[nH]c12)n1cc(CNC(=O)CN)oc1=O (stereo not drawn) [IC-80, 7-(1-(5-((2-Aminoacetamido)methyl)-2-oxooxazol-3(2H)-yl)ethyl)-3-(3-fluoro-4-((methylsulfonyl)methyl)phenyl)-1H-indole-2-carboxylic acid]",A (A = MIC values ≤ 1),B (B MIC values 2 ÷ 8),> 10 nM,> 6.67 h,> 0.25,0.1 to 1 nM,1 to 10 nM,< 2.5 h,1 to 10 nM,0.05 to 0.25,A (A = MIC values ≤ 1)
